These results are taken from patent US9926297B2, “Bicyclic AZA compounds as muscarinic M1 receptor and/or M4 receptor agonists” (Heptares Therapeutics Limited, priority 2014, dated 2018).

Molecules are shown by their SMILES. Where only a bound is given, the exact number is not on record here.

The target in experiment [1] is T1, human muscarinic M4 receptor (Homo sapiens, UniProt P08173).
T1 construct: expressed in transfected cells
T1 sequence (P08173 1-479): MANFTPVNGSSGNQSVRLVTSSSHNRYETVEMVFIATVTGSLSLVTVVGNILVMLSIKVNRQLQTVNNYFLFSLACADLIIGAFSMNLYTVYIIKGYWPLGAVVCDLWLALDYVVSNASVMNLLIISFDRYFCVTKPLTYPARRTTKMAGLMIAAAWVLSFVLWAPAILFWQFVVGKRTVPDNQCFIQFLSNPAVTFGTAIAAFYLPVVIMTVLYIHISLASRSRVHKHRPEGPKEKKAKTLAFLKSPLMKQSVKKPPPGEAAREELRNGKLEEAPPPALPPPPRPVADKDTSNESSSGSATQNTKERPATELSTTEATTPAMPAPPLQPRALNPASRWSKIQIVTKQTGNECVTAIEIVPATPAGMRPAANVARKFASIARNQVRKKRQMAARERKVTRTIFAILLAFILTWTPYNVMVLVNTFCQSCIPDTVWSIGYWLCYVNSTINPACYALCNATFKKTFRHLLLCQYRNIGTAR
The experiment can be described thus: Alphascreen Surefire phospho-ERK1/2 functional assay, M4. The format is cell-based. Conditions: for EC50: phospho-ERK1/2, * = variable results, read-out: pEC50 M4 (converted); for Emax: CHO, read-out: % Emax cf. ACh, M4, CHO cells stably expressing human M4.

For experiment [2], the target named is T2, human muscarinic M1 receptor (Homo sapiens, UniProt P11229).
T2 sequence (P11229 1-460): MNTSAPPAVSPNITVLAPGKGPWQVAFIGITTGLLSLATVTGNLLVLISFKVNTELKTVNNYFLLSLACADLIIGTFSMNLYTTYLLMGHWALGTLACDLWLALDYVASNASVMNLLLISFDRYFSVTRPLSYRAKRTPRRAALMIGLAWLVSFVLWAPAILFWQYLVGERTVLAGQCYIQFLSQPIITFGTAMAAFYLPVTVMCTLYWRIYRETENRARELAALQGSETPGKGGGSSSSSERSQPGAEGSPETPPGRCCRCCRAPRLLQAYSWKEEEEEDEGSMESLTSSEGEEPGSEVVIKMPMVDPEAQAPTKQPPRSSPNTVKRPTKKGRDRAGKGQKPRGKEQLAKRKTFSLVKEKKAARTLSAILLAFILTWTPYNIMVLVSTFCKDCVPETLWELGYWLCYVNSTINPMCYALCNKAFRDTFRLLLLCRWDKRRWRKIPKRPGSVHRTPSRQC
The experiment can be described thus: Alphascreen Surefire phospho-ERK1/2 functional assay, M1. The format is cell-based. Conditions: for EC50: phospho-ERK1/2, * = variable results, read-out: pEC50 M1 (converted); for Emax: CHO, read-out: % Emax cf. ACh, M1, CHO cells stably expressing human M1. Background: Alpha assays give light when donor and acceptor beads are brought close together.
Method: CHO cells stably expressing the human muscarinic M1, M2, M3 or M4 receptor were plated (25K/well) onto 96-well tissue culture plates in MEM-alpha+10% dialysed FBS. Once adhered, cells were serum-starved overnight. Agonist stimulation was performed by the addition of 5 μL agonist to the cells for 5 min (37° C.). Media was removed and 50 μL of lysis buffer added. After 15 min, a 4 μL sample was transferred to 384-well plate and 7 μL of detection mixture added. Plates were incubated for 2 h with gentle agitation in the dark and then read on a PHERAstar plate reader.
pEC50 and Emax figures were calculated from the resulting data for each receptor subtype.

Experiment [3] has as its target human muscarinic M3 receptor (Homo sapiens, UniProt P20309). The experiment can be described thus: Alphascreen Surefire phospho-ERK1/2 functional assay, M3. To be noted: for Emax: CHO, read-out: % Emax cf. ACh, M3, CHO cells stably expressing human M3, relative to ACh; for EC50: pEC50 M3, CHO cells stably expressing human M3, phospho-ERK1/2, * = variable results.
Experiment [4] concerns the target T3, human muscarinic M2 receptor (Homo sapiens, UniProt P08172).
T3 sequence (P08172 1-466): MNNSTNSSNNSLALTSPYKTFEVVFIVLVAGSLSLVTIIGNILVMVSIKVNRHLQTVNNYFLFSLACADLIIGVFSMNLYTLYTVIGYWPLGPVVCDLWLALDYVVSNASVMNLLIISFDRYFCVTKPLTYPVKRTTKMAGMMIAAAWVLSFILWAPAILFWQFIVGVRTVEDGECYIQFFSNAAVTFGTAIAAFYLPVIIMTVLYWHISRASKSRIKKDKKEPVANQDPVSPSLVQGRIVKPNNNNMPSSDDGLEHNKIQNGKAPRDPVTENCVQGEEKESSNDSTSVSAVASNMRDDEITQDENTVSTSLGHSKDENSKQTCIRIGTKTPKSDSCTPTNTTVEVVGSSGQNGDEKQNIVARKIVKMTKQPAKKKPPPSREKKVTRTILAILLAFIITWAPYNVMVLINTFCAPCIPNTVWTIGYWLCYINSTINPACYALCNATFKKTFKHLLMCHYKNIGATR
The experiment can be described thus: Alphascreen Surefire phospho-ERK1/2 functional assay, M2. To be noted: for Emax: CHO, read-out: % Emax cf. ACh, M2, CHO cells stably expressing human M2, relative to ACh.

Setting [5] is: CHO cells stably expressing human M4.
Setting [6] is: CHO cells stably expressing human M1.

human muscarinic M3 receptor, sequence (P20309 whole entry): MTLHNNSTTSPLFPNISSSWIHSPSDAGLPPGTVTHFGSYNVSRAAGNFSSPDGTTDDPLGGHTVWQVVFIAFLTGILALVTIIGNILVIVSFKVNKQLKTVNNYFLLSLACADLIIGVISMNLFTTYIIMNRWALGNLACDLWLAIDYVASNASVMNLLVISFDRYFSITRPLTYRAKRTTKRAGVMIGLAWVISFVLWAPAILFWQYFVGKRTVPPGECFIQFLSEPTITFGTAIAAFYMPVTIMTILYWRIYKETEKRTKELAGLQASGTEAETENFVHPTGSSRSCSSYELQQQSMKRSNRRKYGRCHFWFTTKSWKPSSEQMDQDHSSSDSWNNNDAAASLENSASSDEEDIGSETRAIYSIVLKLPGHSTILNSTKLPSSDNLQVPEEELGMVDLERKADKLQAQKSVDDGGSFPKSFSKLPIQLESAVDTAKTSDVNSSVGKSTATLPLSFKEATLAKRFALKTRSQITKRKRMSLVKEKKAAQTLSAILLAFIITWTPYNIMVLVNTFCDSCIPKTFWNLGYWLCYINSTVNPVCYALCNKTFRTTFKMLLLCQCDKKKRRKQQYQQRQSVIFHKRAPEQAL

As a reminder, the Emax is the maximal effect, on the per cent scale that the assay sets. As to `CCOC(=O)N1CCC2(CC(N3CCC(c4ccc[nH]c4=O)CC3)C2)C1` (single isomer, unassigned) [3-2 Isomer 1, ethyl 2-[4-(2-oxo-1,2-dihydropyridin-3-yl)piperidin-1-yl]-6-azaspiro[3.4]octane-6-carboxylate], the EC50 in experiment [1] (setting [5]) was 6.31 nM; in experiment [2] (setting [6]), 31.6 nM; in experiment [3], > 20000 nM; in experiment [4], > 20000 nM. Also, the Emax in experiment [1] (relative to ACh) worked out at 115%; in experiment [2] (relative to ACh), 97%; in experiment [3], 0%; in experiment [4], 7%.
Take `O=C(OCCF)N1CCC2(CC(N3CCC(c4ccc[nH]c4=O)CC3)C2)C1` (single isomer, unassigned) [3-3 Isomer 2, 2-fluoroethyl 2-[4-(2-oxo-1,2-dihydropyridin-3-yl)piperidin-1-yl]-6-azaspiro[3.4]octane-6-carboxylate]: the EC50 in experiment [1] (setting [5]) was 6.31 nM; in experiment [2] (setting [6]), 25.1 nM; in experiment [3] it was > 20000 nM; in experiment [4] it was 10000 nM. In addition, the Emax in experiment [1] (relative to ACh) was determined as 106%; in experiment [2] (relative to ACh), 81%; in experiment [3], 56%; in experiment [4], 50%.
On to `COc1ncccc1C1CCN(C2CC3(CCN(C(=O)OCCF)C3)C2)CC1` (single isomer, unassigned) [3-5 Isomer 2, 2-fluoroethyl 2-[4-(2-methoxypyridin-3-yl)piperidin-1-yl]-6-azaspiro[3.4]octane-6-carboxylate], for which the EC50 in experiment [1] (setting [5]) is 15.8 nM; in experiment [2] (setting [6]), > 20000 nM; in experiment [3], > 20000 nM; in experiment [4], > 20000 nM. Also, the Emax in experiment [1] (relative to ACh) was found to be 80%; in experiment [2] (relative to ACh) it was 20%; in experiment [3], 11%; in experiment [4], 65%.
For `CCOC(=O)N1CCC2(CC(N3CCC(c4cnc(OC)cc4C)CC3)C2)C1` (single isomer, unassigned) [3-6 Isomer 2, ethyl 2-[4-(6-methoxy-4-methylpyridin-3-yl)piperidin-1-yl]-6-azaspiro[3.4]octane-6-carboxylate], the EC50 in experiment [1] (setting [5]) is 39.8 nM; in experiment [2] (setting [6]), > 20000 nM; in experiment [3] it was > 20000 nM; in experiment [4] it was > 20000 nM. Also, the Emax in experiment [1] (relative to ACh) worked out at 58%; in experiment [2] (relative to ACh) it was 74%; in experiment [3] it was 4%; in experiment [4], 0%.
As for `CCOC(=O)N1CCC2(CC(N3CCC(c4ccnc(N)n4)CC3)C2)C1` (single isomer, unassigned) [3-8 Isomer 2, ethyl 2-[4-(2-aminopyrimidin-4-yl)piperidin-1-yl]-6-azaspiro[3.4]octane-6-carboxylate], the EC50 is 25.1 nM in experiment [1] (setting [5]), > 20000 nM in experiment [2] (setting [6]), > 20000 nM in experiment [3] and > 20000 nM in experiment [4]. Besides, the Emax in experiment [1] (relative to ACh) was found to be 54%; in experiment [2] (relative to ACh), 19%; in experiment [3], 0%; in experiment [4], 2%.
As for `CCOC(=O)N1CCC2(CC(N3CCC(c4nccc(N)n4)CC3)C2)C1` (single isomer, unassigned) [3-9 Isomer 2, ethyl 2-[4-(4-aminopyrimidin-2-yl)piperidin-1-yl]-6-azaspiro[3.4]octane-6-carboxylate], the EC50 was 25.1 nM in experiment [1] (setting [5]), 251 nM in experiment [2] (setting [6]), > 20000 nM in experiment [3] and > 20000 nM in experiment [4]. The Emax in experiment [1] (relative to ACh) amounted to 96%; in experiment [2] (relative to ACh), 103%; in experiment [3] it was 4%; in experiment [4] it was 2%.
As for `CCOC(=O)N1CCC2(CC(N3CCC(c4cc(C)cnc4OC)CC3)C2)C1` (single isomer, unassigned) [3-12 Isomer 2, ethyl 2-[4-(2-methoxy-5-methylpyridin-3-yl)piperidin-1-yl]-6-azaspiro[3.4]octane-6-carboxylate], the EC50 in experiment [1] (setting [5]) is 3.98 nM; in experiment [2] (setting [6]), 251 nM; in experiment [3], > 20000 nM; in experiment [4], > 20000 nM. Moreover, the Emax in experiment [1] (relative to ACh) is 110%; in experiment [2] (relative to ACh), 34%; in experiment [3] it was 5%; in experiment [4] it was 2%.
Regarding `CCOC(=O)N1CCC2(CC(N3CCC(c4cccc(OC)n4)CC3)C2)C1` (single isomer, unassigned) [3-13 Isomer 2, ethyl 2-[4-(6-methoxypyridin-2-yl)piperidin-1-yl]-6-azaspiro[3.4]octane-6-carboxylate], the EC50 in experiment [1] (setting [5]) is 12.6 nM; in experiment [2] (setting [6]), 12.6 nM; in experiment [3], > 20000 nM; in experiment [4], > 20000 nM. The Emax in experiment [1] (relative to ACh) is 82%; in experiment [2] (relative to ACh), 97%; in experiment [3], 1%; in experiment [4] it was 2%.
`CCOC(=O)N1CCC2(CC(N3CCC(C4CCCNC4=O)CC3)C2)C1` (single isomer, unassigned) [4-1 Isomer 4, ethyl 2-(2-oxo-3,4′-bipiperidin-1′-yl)-6-azaspiro[3.4]octane-6-carboxylate]: the EC50 in experiment [1] (setting [5]) was 50.1 nM; in experiment [2] (setting [6]), 398 nM; in experiment [3] it was > 20000 nM; in experiment [4] it was > 20000 nM. Moreover, the “% Emax cf. ACh, M4” value in experiment [1] (CHO cells stably expressing human M4, relative to ACh) is 68%. Besides, the “% Emax cf. ACh, M1” value in experiment [2] (CHO cells stably expressing human M1, relative to ACh) stood at 58%. The Emax in experiment [3] came out at 5%; in experiment [4] it was 3%.
Turning to `CCOC(=O)N1CCC2(CC(N3CCC(C4C(=O)NCCC4C)CC3)C2)C1` (single isomer, unassigned) [4-3 Isomer 2, ethyl 2-(4-methyl-2-oxo-3,4′-bipiperidin-1′-yl)-6-azaspiro[3.4]octane-6-carboxylate], the EC50 in experiment [1] (setting [5]) is 12.6 nM; in experiment [2] (setting [6]), 158 nM; in experiment [3] it was > 20000 nM; in experiment [4], > 20000 nM. The Emax was determined as 88% in experiment [1] (relative to ACh), 103% in experiment [2] (relative to ACh), 4% in experiment [3] and 9% in experiment [4].
For the compound `CCOC(=O)N1CCC2(CC(N3CCC(C4CC(C)CNC4=O)CC3)C2)C1` (single isomer, unassigned) [4-4 Isomer 2, ethyl 2-(5-methyl-2-oxo-3,4′-bipiperidin-1′-yl)-6-azaspiro[3.4]octane-6-carboxylate], the EC50 in experiment [1] (setting [5]) was 5.01 nM; in experiment [2] (setting [6]) it was 31.6 nM; in experiment [3], > 20000 nM; in experiment [4] it was > 20000 nM. The Emax in experiment [1] (relative to ACh) came out at 73%; in experiment [2] (relative to ACh), 97%; in experiment [3] it was 21%; in experiment [4], 19%.
Regarding `CCOC(=O)N1CCC2(CC(N3CCC(C4CCCN(CC)C4=O)CC3)C2)C1` (single isomer, unassigned) [4-5 Isomer 2, ethyl 2-(1-ethyl-2-oxo-[3,4′-bipiperidin]-1′-yl)-6-azaspiro[3.4]octane-6-carboxylate], the EC50 in experiment [1] (setting [5]) is 15.8 nM; in experiment [2] (setting [6]), 501 nM; in experiment [3], > 20000 nM; in experiment [4], > 20000 nM. The Emax in experiment [1] (relative to ACh) is 60%; in experiment [2] (relative to ACh) it was 52%; in experiment [3], 9%; in experiment [4], 9%.
